Positions of bridges follow the written chain, without caps; N, C: chain ends. Non-standard residues stand in square brackets, D forms with d. Residues, ends and D or L forms follow the SMILES beside them. PEG12 = NCCOCCOCCOCCOCCOCCOCCOCCOCCOCCOCCOCCOCCC(=O)O; βAla = NCCC(=O)O
Assays:
PC-9 cells = experiment: Gefitinib resistance test; format: cell-based, human; conditions: gefitinib, HGF 20 ng/mL, 72 hours
Description: The resistance to gefitinib, an anticancer agent, was tested by seeding human lung cancer cells, PC-9 cells, on a 24-well plate and cultured for 24 hours on a RPMI medium containing 10% fetal bovine serum. The number of living cells was counted after non-addition or addition of gefitinib ([…]), HGF (20 ng/mL), or HiP8-PEG11 (1-1000 nM) and culturing for 72 hours.

[1] = system: phosphorylation of MET, Gab1, Akt, and Erk1/2; experiment: Western blotting analysis of HGF-induced phosphorylation in EHMES-1 cells; format: cell-based; conditions: 2 nM HGF, HiP-8 10, 100, 1,000, 10,000 nM
Description: EHMES-1 cells were cultured on a 6-well plate until they were from 80 to 90% confluent. After starvation for 6 hours, the cells were stimulated for 10 minutes with 2 nM hHGF in a culture medium in the absence of a cyclic peptide or in the presence of 10, 100, 1,000, or 10,000 nM cyclic peptide. The resulting cells were washed with PBS and lysed with 200 μl of lysis buffer 17 (product of R&D Systems) containing 1× Complete protease inhibitor cocktail (product of Roche). The protein concentration was measured by BCA assay (product of Thermo Fisher Scientific), and the protein was provided for 10% polyacrylamide gel SDS-PAGE. The protein was transferred onto a PVDF (polyvinylidene difluoride) membrane (Bio-Rad) and detected using a Can Get Signal (registered trademark) solution 1 containing a primary antibody (diluted at 1:2000), that is, MET (CST, 25H2), phospho-MET (Tyr1234/1235) (CST, D26), Akt (CST, 11E7), phospho-Akt (Ser473) (CST, D9E), Erk1/2 (CST, 137F5), phospho-Erk1/2 (Thr202/Tyr204) (CST, D13.14.4E), Gab1 (CST) and phospho-Gab1 (Tyr627) (CST, C32H2), and Can Get Signal (registered trademark) solution 2 (product of Toyobo) containing a horseradish peroxidase-bound secondary antibody (product of Dako) (diluted at 1:5000). […]

B16-F10 melanoma = experiment: Cell migration test; format: cell-based; conditions: transwell, 16 hours
Description: B16F10 cells (1×10^5 cells/insert) cultured in 200 μl of a RPMI1640 medium containing 0.5% FBS were seeded in the upper insert (transwell having a diameter of 8 mm, product of Corning) while 800 μl of a RPMI1640 medium with or without hHGF or HiP-8, or an anti-human HGF rabbit polyclonal antibody and supplemented with 0.5% FBS was added to the bottom chamber. The cells were cultured for 16 hours and fixed with 4% PFA solution in PBS. The cells attached to the bottom surface of the membrane were stained with 0.4% crystal violet solution in 20% methanol and the number of cells was counted.

HGF [2] = target: T1, HGF (Homo sapiens, UniProt P14210); experiment: Binding of cyclic peptides to immobilized HGF by SPR (Biacore T200); conditions: immobilized biotinylated HGF, single cycle kinetics
T1 construct: the full-length human HGF cDNA was cloned into pEHX1.1 plasmid; made in house; host or cells: Chinese hamster ovary (CHO) cells
Description: Binding of the cyclic peptides to immobilized HGF was measured using surface plasmon resonance (SPR) with Biacore T200 (product of GE Healthcare). Specifically, 2000 resonance units (RU) of biotinylated HGF was immobilized onto a CAP sensor chip by using a biotin capture kit (product of GE Healthcare).
Binding of the cyclic peptides was tested by injecting varying concentrations of the cyclic peptides into an HBS EP+buffer (10 mM HEPES (pH 7.4), 150 mM NaCl, 3 mM EDTA, and 0.05% (v/v) Surfactant P20) containing 0.1% DMSO at a flow rate of 30 μl/min. Binding of the cyclic peptides to HGF was analyzed by single cycle kinetics analysis.

HGF-MET interaction = target: T2, HGF-MET interaction (Homo sapiens, UniProt P14210); experiment: Competition of HiP-8 against binding between HGF or HGF fragment and MET ECD by SPR; conditions: immobilized MET external domain, varying HiP-8 concentrations
T2 construct: the full-length human HGF cDNA was cloned into pEHX1.1 plasmid; made in house; host or cells: Chinese hamster ovary (CHO) cells (HGF)
Description: Competition of HiP-8 against the binding between HGF or HGF fragment and MET ECD was measured by surface plasmon resonance (SPR) with Biacore 3000 (product of GE Flealthcare). His-labeled MET-ECD was supported on the surface of a nitrilotriacetic acid (NTA)-coated chip at 1000 RU. HiP-8 was mixed in advance at gradually increasing concentrations with 5 nM HGF, 30 nM NK4, or 30 nM SP fragment, and the resulting mixture was tested in 10 mM TBS (pH 7.4), 300 mM NaCl, and 0.05% Tween 20 (v/v) at a flow rate of 30 μl/min.

HGF [3] = target: T1, HGF; experiment: Change in conformational structure of HGF: trypsin digestion; conditions: HGF 2.5 μM ± HiP-8 10 μM, room temperature, 30 minutes
Description: System of HGF (2.5 μM) with or without HiP-8 were digested with trypsin at room temperature for 30 minutes. A trypsin:HGF molar ratio was set at 0:1, 0.004:1, 0.012:1, 0.037:1, 0.11:1, 0.33:1, and 1:1. The product obtained by digestion was analyzed on from 5 to 20% SDS-PAGE under reducing conditions and stained with Coomassie Blue.
Target sequence in this assay (P14210 32-489 isoform P14210-3): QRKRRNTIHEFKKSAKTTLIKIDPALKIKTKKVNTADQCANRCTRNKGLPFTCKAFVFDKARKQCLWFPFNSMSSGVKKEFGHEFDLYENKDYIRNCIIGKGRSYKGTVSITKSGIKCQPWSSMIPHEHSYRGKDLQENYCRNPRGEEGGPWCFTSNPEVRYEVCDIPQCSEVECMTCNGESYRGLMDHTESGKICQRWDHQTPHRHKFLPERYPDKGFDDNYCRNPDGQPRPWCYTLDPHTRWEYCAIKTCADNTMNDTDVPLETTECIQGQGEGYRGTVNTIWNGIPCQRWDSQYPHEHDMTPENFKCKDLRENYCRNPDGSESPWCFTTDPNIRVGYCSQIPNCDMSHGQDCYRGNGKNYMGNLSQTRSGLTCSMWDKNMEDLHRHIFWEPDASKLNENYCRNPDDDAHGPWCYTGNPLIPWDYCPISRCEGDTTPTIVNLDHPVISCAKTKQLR
Target sequence in this assay (P14210 495-728): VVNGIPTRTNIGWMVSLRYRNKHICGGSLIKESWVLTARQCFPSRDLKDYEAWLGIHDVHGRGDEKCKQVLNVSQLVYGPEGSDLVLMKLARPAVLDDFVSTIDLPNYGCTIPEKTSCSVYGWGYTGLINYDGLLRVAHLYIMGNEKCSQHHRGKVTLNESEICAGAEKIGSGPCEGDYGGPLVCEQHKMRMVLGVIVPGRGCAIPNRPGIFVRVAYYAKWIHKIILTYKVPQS

tcHGF = target: T3, tcHGF (Homo sapiens, UniProt P14210); experiment: Tissue staining of frozen human lung cancer tissue; conditions: thirty six lung cancer tissue sections
T3 construct: subjected to extracellular processing (cleavage) by a specific protease and is to be converted into two-chain HGF; tissue US Biomax FLU401B; host or cells: frozen human lung cancer tissue sections
Description: A frozen human lung cancer tissue array FLU401B was obtained from US Biomax. A tissue section was fixed in a 4% (w/v) paraformaldehyde PBS solution at room temperature for 30 minutes, treated for one hour with a 3% (w/v) bovine serum-derived albumin (BSA) PBS solution to prevent non-specific adsorption of a probe, and incubated overnight at 4° C. with HiP-8-PEG11-biotin, a primary antibody against human HGF (clone: t5A11, Umitsu M, Sakai K, Ogasawara S, Kaneko M, Asaki R, Tamura-Kawakami K, Kato Y, Matsumoto K, Takagi J. Probing conformational and functional states of human hepatocyte growth factor by a panel of monoclonal antibodies. Scientific Reports, 6: 33149, 2016), or phosphorylated MET (phospho Y1230/1234/Y1235, product of Abeam) diluted with Can Get Signal (registered trademark) antibody staining (product of Toyobo).
After washing three times with PBS, the probes were detected with streptavidin or goat anti-mouse IgG labeled with Alexa Fluor 488 and goat anti-rabbit IgG (product of Thermo Fisher Scientific) labeled with Alexa Fluor 594.
For semi-quantitative detection of antibody staining, stained region and mixed region in each tissue was quantitatively determined by ImageJ software (product of NIH). […]

HGF [4] = target: T1, HGF; experiment: Binding of HGF to immobilized HiP8-PEG11 by SPR (Biacore 3000); conditions: immobilized HiP-8-PEG11, read-out: KD of HGF binding to immobilized peptide
Description: (§1) Binding of HGF and HGF fragments to immobilized HiP8-PEG11 was measured by surface plasmon resonance (SPR) with Biacore 3000 (product of Ge Flealthcare). Hip8-PEG11-biotin was supported on the surface of a streptavidin-coated chip at 10 RU (resonance unit). The test was performed by injecting HGF and HGF fragments with varying concentrations into 10 mM TBS (pH 7.4), 150 mM NaCl, and 0.05% Tween 20 (v/v) at a flow rate of 30 μl/min. Binding affinity was analyzed from a fitting model of steady-state affinity by multi-cycle kinetics analysis.
(§2) HGF was an active type HGF without substitution of the cleavage site of wild type HGF (KQLR/V) with the recognition sequence of Factor Xa (IEGR/V) and domain-deficiency and was a two-chain HGF capable of activating MET. tcHGF (Xa) was an HGF with substitution of the cleavage site of the HGF with the recognition sequence of Factor Xa (IEGR/V) and was cleaved into two chains by the Factor Xa treatment. It was also a two-chain HGF capable of activating MET. On the other hand, scHGF (Xa) was obtained by substituting the cleavage site of HGF with the recognition sequence of Factor Xa (IEGR/V).

scHGF(Xa) = target: T4, scHGF(Xa) (Homo sapiens, UniProt P14210, K491I/L493G/Q492E); experiment: Binding of scHGF(Xa) to immobilized HiP8-PEG11 by SPR (Biacore 3000); conditions: immobilized HiP-8-PEG11
T4 construct: The full-length HGF protein and N-terminally truncated HGF protein; hexahistidine (with TEV site) (C, cleaved yes); made in house; host or cells: Expi293F cells
Description: as §1, §2

[5] = system: MET activation/tyrosine phosphorylation; experiment: MET activation inhibition test in mice; format: in vivo; conditions: human HGF knocked-in SCID mice with PC-9 tumors, intravenous injection
Description: PC-9 human non-small cell lung cancer cells, which were to express human HGF, were transplanted subcutaneously to human HGF knocked-in SCID mice at 3×10^6 cells/site. On day 28 after transplantation, HiP8-PEG11 in PBS/phosphate buffered physiological saline solution was intravenously injected. The tumor tissue was removed, and MET activated/tyrosine-phosphorylated and a total MET amount in the tumor tissue were quantitatively determined by western blotting with the tissue extract. It is to be noted that the tumor tissue was homogenized in a RIPA buffer solution. Each sample containing […] of the protein was provided for SDS-PAGE and western blotting. Tyrosine-phosphorylated MET and a total MET amount were detected by western blotting.

T4 sequence (P14210 32-723 isoform P14210-3 K486I/Q487E/L488G): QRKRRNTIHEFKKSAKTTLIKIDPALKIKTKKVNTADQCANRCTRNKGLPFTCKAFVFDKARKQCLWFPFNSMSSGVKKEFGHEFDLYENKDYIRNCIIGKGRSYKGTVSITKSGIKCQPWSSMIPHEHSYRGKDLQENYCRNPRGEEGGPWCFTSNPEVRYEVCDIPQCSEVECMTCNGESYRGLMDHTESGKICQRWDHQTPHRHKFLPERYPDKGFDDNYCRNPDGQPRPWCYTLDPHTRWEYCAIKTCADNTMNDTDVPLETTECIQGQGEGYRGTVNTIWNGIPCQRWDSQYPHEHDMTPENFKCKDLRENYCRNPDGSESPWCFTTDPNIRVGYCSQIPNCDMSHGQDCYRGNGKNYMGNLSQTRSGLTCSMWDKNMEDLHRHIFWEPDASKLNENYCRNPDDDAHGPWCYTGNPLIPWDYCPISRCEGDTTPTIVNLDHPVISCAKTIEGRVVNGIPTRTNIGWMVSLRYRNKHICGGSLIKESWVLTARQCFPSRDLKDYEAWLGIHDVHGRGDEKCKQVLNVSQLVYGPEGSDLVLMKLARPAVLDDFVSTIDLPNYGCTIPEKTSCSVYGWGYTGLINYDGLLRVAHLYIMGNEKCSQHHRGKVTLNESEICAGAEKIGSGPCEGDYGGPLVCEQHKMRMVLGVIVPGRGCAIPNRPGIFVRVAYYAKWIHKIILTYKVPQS
T2 sequence (P14210 32-489 isoform P14210-3): as the sequence (P14210 32-489 isoform P14210-3) above
T2 sequence (P14210 495-728): as the sequence (P14210 495-728) above
T3 sequence (P14210 32-494 limits assumed): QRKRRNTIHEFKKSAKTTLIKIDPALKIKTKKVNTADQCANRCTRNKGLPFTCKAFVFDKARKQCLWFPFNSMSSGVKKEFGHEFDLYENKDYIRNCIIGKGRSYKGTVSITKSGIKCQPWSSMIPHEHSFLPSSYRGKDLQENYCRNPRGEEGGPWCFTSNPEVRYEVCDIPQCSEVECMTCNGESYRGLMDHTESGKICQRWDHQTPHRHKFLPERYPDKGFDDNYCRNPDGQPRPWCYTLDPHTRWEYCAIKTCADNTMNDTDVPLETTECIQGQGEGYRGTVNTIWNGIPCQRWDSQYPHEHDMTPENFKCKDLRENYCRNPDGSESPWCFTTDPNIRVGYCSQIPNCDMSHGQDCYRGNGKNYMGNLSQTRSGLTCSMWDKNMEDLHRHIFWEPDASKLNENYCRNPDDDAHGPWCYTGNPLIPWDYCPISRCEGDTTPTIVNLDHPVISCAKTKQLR
T3 sequence (P14210 495-728 limits assumed): as the sequence (P14210 495-728) above

SMILES	effect on gefitinib resistance induced by HGF (PC-9 cells)	phosphorylation of MET, Gab1, Akt, and Erk1/2 induced by HGF [1]	B16-F10 melanoma migration induced by HGF (B16-F10 melanoma)	kon (HGF [2]; read-out: Ka (association rate))	koff (HGF [2]; read-out: Kd (dissociation rate))	mode of inhibition of HGF-MET interaction (HGF-MET interaction)	structural change of HGF (trypsin proteolysis of SP chain) (HGF [3])	correlation of staining intensity of tcHGF detected by peptide with pMET (tcHGF)	Kd (HGF [4])	binding of scHGF(Xa) to immobilized peptide (scHGF(Xa))	MET activation/tyrosine phosphorylation in tumor tissue [5]
CC(C)C[C@@H]1NC(=O)[C@@H]2CCCN2C(=O)[C@@H](Cc2c[nH]c3ccccc23)NC(=O)CSC[C@@H](C(=O)NCC(N)=O)NC(=O)[C@H](CCCNC(=N)N)NC(=O)[C@H](CCCCN)NC(=O)[C@H](CO)NC(=O)[C@H](Cc2ccc(O)cc2)NC(=O)[C@H](Cc2c[nH]c3ccccc23)NC(=O)[C@H](Cc2c[nH]c3ccccc23)NC(=O)[C@H](CCCCN)NC(=O)[C@H](CO)NC1=O [HiP-8, PLSKWWYSKR]	inhibited gefitinib resistance induced by HGF	inhibited phosphorylation of MET, Gab1, Akt, and Erk1/2	inhibited B16-F10 melanoma migration induced by HGF at a level equivalent to that of an anti-HGF antibody	1.1e+06 M⁻¹ s⁻¹	0.0004 s⁻¹	uncompetitive inhibition of HGF-MET interaction	induced a change in the conformation of HGF	strong correlation with the staining intensity of pMET			
CC(C)C[C@@H]1NC(=O)[C@@H]2CCCN2C(=O)[C@H](Cc2c[nH]c3ccccc23)NC(=O)CSC[C@@H](C(=O)NCCC(=O)NCCOCCOCCOCCOCCOCCOCCOCCOCCOCCOCCOCCOCCC(N)=O)NC(=O)[C@H](CCCNC(=N)N)NC(=O)[C@H](CCCCN)NC(=O)[C@H](CO)NC(=O)[C@H](Cc2ccc(O)cc2)NC(=O)[C@H](Cc2c[nH]c3ccccc23)NC(=O)[C@H](Cc2c[nH]c3ccccc23)NC(=O)[C@H](CCCCN)NC(=O)[C@H](CO)NC1=O [HiP-8-PEG11] ({CH2CO}-WPLSKWWYSKRC[βAla][PEG12]-NH2; thioether N-12)									0.9 nM	very limited portion of the scHGF(Xa) bound	dose-dependent inhibition of MET activation/tyrosine phosphorylation
